The values below come from PubChem BioAssay AID1552 (Sanford-Burnham Center for Chemical Genomics, 2009).

The test has as its target Ubiquitin-conjugating enzyme E2 N (Homo sapiens) (UniProt P61088). Kind of test: UBE2N binders by NMR, biophysical, purified protein (AID 1552). Particulars: NMR binding to purified UBE2N.

Calls of active or inactive are those of the source. How the calls were made is not given here.

Chain of Ubiquitin-conjugating enzyme E2 N (Homo sapiens) (P61088 whole entry, looked up): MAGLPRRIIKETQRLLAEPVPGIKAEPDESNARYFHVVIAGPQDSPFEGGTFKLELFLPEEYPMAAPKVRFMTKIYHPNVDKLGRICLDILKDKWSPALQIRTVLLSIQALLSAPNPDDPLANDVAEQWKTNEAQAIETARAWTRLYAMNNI

Consider `COC(=O)c1ccc2ncccc2c1`, for which the Kd (as a rule, the equilibrium constant for the complex coming apart) is > 4 mM (inactive).
In the case of `NC1=NC(=O)/C(=C/c2ccccc2[N+](=O)[O-])S1`, the Kd is > 4 mM (inactive).
The value for `C=CC(=O)N1CC2CC(C1)c1cccc(=O)n1C2` (centres undefined) was > 4 mM (inactive).
The value for `c1coc(CNc2ncnc3nc[nH]c23)c1` was > 4 mM (inactive); that for `CCP(=O)(CC)c1cccc(C)c1` was > 4 mM (inactive); that for `CC(=O)c1c(C)nc(-c2cccs2)n1O` was > 4 mM (inactive).
For the compound `Cc1ccccc1NC(=O)C1CCC(=O)N1` (centres undefined), the Kd was > 4 mM (inactive).
The value for `CN1CCN(Cc2cccnc2)CC1` was > 4 mM (inactive); that for `CC(=O)Oc1c(-c2ccccc2)oc2c(CC=C(C)C)c3c(c(OC(C)=O)c2c1=O)C=CC(C)(C)O3` was > 4 mM (inactive); that for `Cc1nnc2sc(-c3csc4c3CCCC4)nn12` was > 4 mM (inactive).
The value for `CCn1c(C)c(C(C)=O)c(N2CCN(C)CC2)nc1=S` was > 4 mM (inactive); that for `O=C1c2ccncc2C(=O)N1CO` was > 4 mM (inactive); that for `CC(=O)c1sc2nc(N)nn2c1C` was > 4 mM (inactive).
The value for `CC(=O)Nc1ccc2c(C)cc(=O)[nH]c2c1` was > 4 mM (inactive); that for `O=C(COc1ccccc1)N1CCc2ccccc2C1` was > 4 mM (inactive).
Turning to `NC(=O)c1ccc(-c2ccccn2)s1`, the Kd was > 4 mM (inactive).
With `CC1(C)Oc2ccc3ccc(=O)oc3c2CC1O` (centres undefined) the figure was > 4 mM (inactive).
As for `Nc1ccc(C(=O)NCC2CCCO2)cc1` (centres undefined), the Kd was > 4 mM (inactive).
With `NC(=O)c1ccccc1N1CCCCC1` the figure was > 4 mM (inactive); with `c1coc(-c2nc(-c3ccncc3)no2)c1`, > 4 mM (inactive); with `COC(=O)C[C@@H]1C2(C)C(=O)[C@@H](CC3=C4CC(O)O[C@@H](c5ccoc5)[C@]4(C)CCC32)[C@H](O)C1(C)C` (some centres undefined), > 4 mM (inactive).
With `O=C(CSc1ccnc(=O)[nH]1)NCc1ccccc1`, the Kd was > 4 mM (inactive).
With `c1csc(-c2nn[nH]n2)c1` the figure was > 4 mM (inactive); with `Cc1ccc(C(=O)Nc2c[nH]c(=O)[nH]c2=O)cc1`, > 4 mM (inactive).
With `CC(=O)Oc1cc2c(c(C)c1OC(C)=O)CC=C1[C@@]2(C)CC[C@@]2(C)C3C[C@](C)(C(=O)O)CC[C@]3(C)CC[C@]12C` (some centres undefined), the Kd is > 4 mM (inactive).
With `Cc1nn(C)c(C)c1NC(=S)NC1CCCC1` the figure was > 4 mM (inactive); with `Cc1nc2ccccc2c(=O)n1CCCO`, > 4 mM (inactive).
With `C=C(C)CSc1nc2nc(C)cc(C)n2n1` the figure was > 4 mM (inactive).
With `COc1cccc2c(=O)n(CC(N)=O)ccc12`, the Kd is > 4 mM (inactive).
With `CNC(=O)N1CCN(C(=O)NC)CC1` the figure was > 4 mM (inactive).
In the case of `Nc1nnc(C(F)(F)F)s1`, the Kd was > 4 mM (inactive).
With `O=[N+]([O-])c1ccc2c(c1)N([O-])C1(CCCCC1)[N+]2=O` the figure was > 4 mM (inactive); with `CC1(O)CC2C=CC1C2` (centres undefined), > 4 mM (inactive).
With `O=C(O)C1CC(=O)N(CCc2ccc(Cl)cc2)C1` (centres undefined) the figure was > 4 mM (inactive); with `CC(C)CCCC1(C)C=Cc2c(O)c3c(c(CCC(C)C)c2O1)OC12C(CC4CC1C(C)(C)OC2(CCC(C)C(=O)O)C4O)C3=O` (centres undefined), > 4 mM (inactive); with `CC(C)=CCc1c2c(c3occ(-c4ccc(O)c(O)c4)c(=O)c3c1O)C=CC(C)(C)O2`, > 4 mM (inactive).
With `O=C(O)C1(S(=O)(=O)c2ccccc2)CC1` the figure was > 4 mM (inactive).
Take `CN1C(=O)CC(=O)N(C)c2ccccc21`: the Kd is > 4 mM (inactive).
With `Nc1nc2ncc(CNc3ccc(C(=O)N[C@@H](CCC(=O)O)C(=O)O)cc3)nc2c(=O)[nH]1` the figure was > 4 mM (inactive).
